For assay [1], the target named is T1, GRK5 (Homo sapiens, UniProt P34947).
T1 construct: purchased Millipore
As to the kind of experiment: IC50 determination of compounds inhibiting GRK5 by Millipore KinaseProfiler (radiometric filtration binding assay). It is filed as biochemical. Conditions: 2 mg/mL casein, 40 minutes at room temperature. As for the experimental part:
IC50 values are determined by a radiometric based filtration binding assay, namely Millipore KinaseProfiler™. GRK5 is incubated with 8 mM MOPS pH 7.0, 0.2 mM EDTA, 2 mg/mL casein, 10 mM MgAcetate and […] (specific activity approx. 500 cpm/pmol, concentration as required). The reaction is initiated by the addition of the MgATP mix. After incubation for 40 minutes at room temperature, the reaction is stopped by the addition of 3 % phosphoric acid solution. 10 µL of the reaction is then spotted onto a P30 filtermat and washed three times for 5 minutes in 75 mM phosphoric acid and once in methanol prior to drying and scintillation counting.

The target of assay [2] is T2, full length GRK5 (Homo sapiens, UniProt P34947).
T2 construct: 6/2 fold concentrated full length GRK5 (Millipore, #14-714) in reaction buffer is added to each well; purchased Millipore 14-714
As to the kind of experiment: IC50 determination of compounds inhibiting GRK5 by ADP Glo Kinase Assay technology (Promega). Type of assay: biochemical. In general terms: ADP-Glo turns the ADP formed in a reaction into a luminescent signal.

[3] abbreviates: 20 nM GRK5, 18.7 µM ATP, 10 µM casein, 12 concentrations, triplicates, read-out: GRK5 IC50.

Read-outs that look alike come from different tables or passages of the source.

T1 sequence (P34947 whole entry): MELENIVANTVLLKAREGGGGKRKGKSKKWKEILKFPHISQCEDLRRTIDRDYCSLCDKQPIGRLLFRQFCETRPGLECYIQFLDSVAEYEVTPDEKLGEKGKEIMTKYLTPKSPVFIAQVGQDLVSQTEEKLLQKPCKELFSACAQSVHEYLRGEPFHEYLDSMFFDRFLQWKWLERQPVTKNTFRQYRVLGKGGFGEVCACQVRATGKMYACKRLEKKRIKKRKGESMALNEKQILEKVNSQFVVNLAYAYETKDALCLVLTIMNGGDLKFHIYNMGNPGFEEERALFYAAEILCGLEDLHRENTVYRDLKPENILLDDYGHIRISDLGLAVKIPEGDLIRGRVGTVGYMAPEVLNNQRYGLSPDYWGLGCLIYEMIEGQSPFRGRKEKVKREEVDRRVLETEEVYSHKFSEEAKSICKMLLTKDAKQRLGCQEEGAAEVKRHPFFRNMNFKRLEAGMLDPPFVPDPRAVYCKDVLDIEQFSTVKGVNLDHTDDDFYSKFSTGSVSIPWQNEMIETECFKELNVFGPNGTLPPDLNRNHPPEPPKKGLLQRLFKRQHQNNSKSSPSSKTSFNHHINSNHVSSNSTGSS
T2 sequence (P34947 whole entry): as above

On to `CC[C@H](NC(=O)c1ccc2c(c1)/C(=C/c1[nH]c(C)c(C(=O)NCCN(CC)CC)c1C)C(=O)N2)c1ccccc1` [Compound 62, (3Z)-3-[(4-{[2-(diethylamino)ethyl]carbamoyl}-3,5-dimethyl-1H-pyrrol-2-yl)methylene]-2-oxo-N-[(1S)-1-phenylpropyl]indoline-5-carboxamide], for which the IC50 in assay [1] and in assay [2] (setting [3]) was over 30 µM in each case.

With `COc1ccc([C@@H](C)NC(=O)c2ccc3c(c2)/C(=C/Nc2ccc(CN4CCCCC4)cc2)C(=O)N3)cc1` [Compound 70, (3Z)-N-[(1R)-1-(4-methoxyphenyl)ethyl]-2-oxo-3-({[4-(piperidin-1-ylmethyl)phenyl]amino}methylene)indoline-5-carboxamide], the IC50 is under 5 µM in assay [1] and under 5 µM in assay [2] (read-out: GRK5 IC50, 20 nM GRK5, 18.7 µM ATP, 10 µM casein, 12 concentrations, triplicates).

For `CCC(NC(=O)c1ccc2c(c1)/C(=C/c1[nH]c(C)c(C(=O)NCCN3CCCC3)c1C)C(=O)N2)c1ccc(F)c(F)c1` (stereo not drawn) [Compound 10, (3Z)-N-[1-(3,4-difluorophenyl)propyl]-3-({3,5-dimethyl-4-[(2-pyrrolidin-1-ylethyl)carbamoyl]-1H-pyrrol-2-yl}methylene)-2-oxoindoline-5-carboxamide], the IC50 in assay [2] (setting [3]) was under 5 µM. `CC[C@@H](NC(=O)c1ccc2c(c1)/C(=C/c1[nH]c(C)c(C(=O)N3CCC[C@H]3CN3CCCC3)c1C)C(=O)N2)c1ccccc1` [Compound 46, (3Z)-3-[(3,5-dimethyl-4-{[(2S)-2-(pyrrolidin-1-ylmethyl)pyrrolidin-1-yl]carbonyl}-1H-pyrrol-2-yl)methylene]-2-oxo-N-[(1R)-1-phenylpropyl]indoline-5-carboxamide]: the IC50 in assay [1] and in assay [2] (setting [3]) was under 5 µM in each case. Take `CC[C@@H](NC(=O)c1ccc2c(c1)/C(=C/c1[nH]c(C)c(C(=O)N3CCN(C)CC3)c1C)C(=O)N2)c1ccccc1` [Compound 7, (3Z)-3-({3,5-dimethyl-4-[(4-methylpiperazin-1-yl)carbonyl]-1H-pyrrol-2-yl}methylene)-2-oxo-N-[(1R)-1-phenylpropyl]indoline-5-carboxamide]: in assay [2] (setting [3]), the IC50 is 5 to 20 µM. Regarding `CCC(NC(=O)c1ccc2c(c1)/C(=C/c1[nH]c(C)c(C(=O)N3CCN(C)CC3)c1C)C(=O)N2)c1ccc(Cl)cc1` (stereo not drawn) [Compound 12, (3Z)-N-[1-(4-chlorophenyl)propyl]-3-({3,5-dimethyl-4-[(4-methylpiperazin-1-yl)carbonyl]-1H-pyrrol-2-yl}methylene)-2-oxoindoline-5-carboxamide], the IC50 in assay [1] and in assay [2] (setting [3]) was under 5 µM in each case.

In the case of `COc1cccc([C@@H](C)NC(=O)c2ccc3c(c2)/C(=C/Nc2ccc(CN4CCCCC4)cc2)C(=O)N3)c1` [Compound 79, (3Z)-N-[(1R)-1-(3-methoxyphenyl)ethyl]-2-oxo-3-({[4-(piperidin-1-ylmethyl)phenyl]amino}methylene)indoline-5-carboxamide], in assay [2] (setting [3]), the IC50 is under 5 µM. On the same count and under the same terms, with `Cc1ccc([C@@H](C)NC(=O)c2ccc3c(c2)/C(=C/c2[nH]c(C)c(C(=O)N4CCN(C)CC4)c2C)C(=O)N3)cc1` [Compound 32, (3Z)-3-({3,5-dimethyl-4-[(4-methylpiperazin-1-yl)carbonyl]-1H-pyrrol-2-yl}methylene)-N-[(1R)-1-(4-methylphenyl)ethyl]-2-oxoindoline-5-carboxamide] the figure was under 5 µM; with `CCC(NC(=O)c1ccc2c(c1)/C(=C/c1[nH]c(C)c(C(=O)NCCN3CCCC3)c1C)C(=O)N2)c1ccc(Cl)cc1` (stereo not drawn) [Compound 13, (3Z)-N-[1-(4-chlorophenyl)propyl]-3-({3,5-dimethyl-4-[(2-pyrrolidin-1-ylethyl)carbamoyl]-1H-pyrrol-2-yl}methylene)-2-oxoindoline-5-carboxamide], under 5 µM. Take `Cc1[nH]c(/C=C2\C(=O)Nc3ccc(C(=O)N[C@H](C)c4ccc(Cl)cc4)cc32)c(C)c1C(=O)N1CCCC1` [Compound 67, (3Z)-N-[(1R)-1-(4-chlorophenyl)ethyl]-3-{[3,5-dimethyl-4-(pyrrolidin-1-ylcarbonyl)-1H-pyrrol-2-yl]methylene}-2-oxoindoline-5-carboxamide]: the IC50 in assay [2] (setting [3]) is under 5 µM. As for `Cc1[nH]c(/C=C2\C(=O)Nc3ccc(C(=O)N[C@H](C)c4ccccc4)cc32)c(C)c1C(=O)N1CCN(C)CC1` [Compound 15, (3Z)-3-({3,5-dimethyl-4-[(4-methylpiperazin-1-yl)carbonyl]-1H-pyrrol-2-yl}methylene)-2-oxo-N-[(1R)-1-phenylethyl]indoline-5-carboxamide], in assay [2] (setting [3]), the IC50 is under 5 µM. `COc1ccc([C@H](C)NC(=O)c2ccc3c(c2)/C(=C/c2[nH]c(C)c(C(=O)N4CCCCC4)c2C)C(=O)N3)cc1` [Compound 65, (3Z)-3-{[3,5-dimethyl-4-(piperidin-1-ylcarbonyl)-1H-pyrrol-2-yl]methylene}-N-[(1S)-1-(4-methoxyphenyl)ethyl]-2-oxoindoline-5-carboxamide]: the values for the IC50 in assay [1] and in assay [2] (setting [3]) were over 30 µM and under 5 µM, respectively. Take `C[C@@H](NC(=O)c1ccc2c(c1)/C(=C/Nc1ccc(CN3CCCCC3)cc1)C(=O)N2)c1ccc(Cl)cc1` [Compound 73, (3Z)-N-[(1R)-1-(4-chlorophenyl)ethyl]-2-oxo-3-({[4-(piperidin-1-ylmethyl)phenyl]amino}methylene)indoline-5-carboxamide]: the IC50 in assay [1] and in assay [2] (setting [3]) was under 5 µM throughout. `CC[C@@H](NC(=O)c1ccc2c(c1)/C(=C/Nc1ccc(CN3CCCCC3)cc1)C(=O)N2)c1ccccc1` [Compound 69, (3Z)-2-oxo-N-[(1R)-1-phenylpropyl]-3-({[4-(piperidin-1-ylmethyl)phenyl]amino}methylene)-indoline-5-carboxamide]: in assay [2] (setting [3]), the IC50 was under 5 µM. As to `Cc1[nH]c(/C=C2\C(=O)Nc3ccc(C(=O)N[C@H](C)c4ccccc4)cc32)c(C)c1C(=O)N1CCCCC1` [Compound 14, (3Z)-3-{[3,5-dimethyl-4-(piperidin-1-ylcarbonyl)-1H-pyrrol-2-yl]methylene}-2-oxo-N-[(1R)-1-phenylethyl]indoline-5-carboxamide], the IC50 in assay [2] (setting [3]) was under 5 µM. The same measure, in the same setting: with `CC[C@@H](NC(=O)c1ccc2c(c1)/C(=C/c1[nH]c(C)c(C(=O)NCCN(CC)CC)c1C)C(=O)N2)c1ccccc1` [Compound 61, (3Z)-3-[(4-{[2-(diethylamino)ethyl]carbamoyl}-3,5-dimethyl-1H-pyrrol-2-yl)methylene]-2-oxo-N-[(1R)-1-phenylpropyl]indoline-5-carboxamide] the figure was under 5 µM; with `Cc1[nH]c(/C=C2\C(=O)Nc3ccc(C(=O)O)cc32)c(C)c1C(=O)NCCN1CCCC1` [Compound 2], under 5 µM; with `COc1ccc([C@@H](C)NC(=O)c2ccc3c(c2)/C(=C/c2[nH]c(C)c(C(=O)N4CCN(C)CC4)c2C)C(=O)N3)cc1` [Compound 21, (3Z)-3-({3,5-dimethyl-4-[(4-methylpiperazin-1-yl)carbonyl]-1H-pyrrol-2-yl}methylene)-N-[(1R)-1-(4-methoxyphenyl)ethyl]-2-oxoindoline-5-carboxamide], under 5 µM. On the same count and under the same terms, with `Cc1cccc(C(C)NC(=O)c2ccc3c(c2)/C(=C/c2[nH]c(C)c(C(=O)N4CCN(C)CC4)c2C)C(=O)N3)c1` (stereo not drawn) [Compound 51, (3Z)-3-({3,5-dimethyl-4-[(4-methylpiperazin-1-yl)carbonyl]-1H-pyrrol-2-yl}methylene)-N-[1-(3-methylphenyl)ethyl]-2-oxoindoline-5-carboxamide] the figure was 5 to 20 µM; with `C[C@@H](NC(=O)c1ccc2c(c1)/C(=C/Nc1ccc(CN3CCCCC3)cc1)C(=O)N2)c1ccccc1` [Compound 78, (3Z)-2-oxo-N-[(1R)-1-phenylethyl]-3-({[4-(piperidin-1-ylmethyl)phenyl]amino}methylene)indoline-5-carboxamide], under 5 µM; with `CC[C@@H](NC(=O)c1ccc2c(c1)/C(=C/c1[nH]c(C)c(C(=O)NCCN3CCCC3)c1C)C(=O)N2)c1ccccc1` [Compound 6, (3Z)-3-({3,5-dimethyl-4-[(2-pyrrolidin-1-ylethyl)carbamoyl]-1H-pyrrol-2-yl}methylene)-2-oxo-N-[(1R)-1-phenylpropyl]indoline-5-carboxamide], under 5 µM.

In the case of `C[C@@H](NC(=O)c1ccc2c(c1)/C(=C/Nc1ccc(CN3CCCCC3)cc1)C(=O)N2)c1cccc(Cl)c1` [Compound 80, (3Z)-N-[(1R)-1-(3-chlorophenyl)ethyl]-2-oxo-3-({[4-(piperidin-1-ylmethyl)phenyl]amino}methylene)indoline-5-carboxamide], the IC50 in assay [2] (setting [3]) was under 5 µM. As for `Cc1[nH]c(/C=C2\C(=O)Nc3ccc(C(=O)N[C@H](C)c4ccccc4)cc32)c(C)c1C(=O)N1CCC[C@H]1CN1CCCC1` [Compound 16, (3Z)-3-[(3,5-dimethyl-4-{[(2S)-2-(pyrrolidin-1-ylmethyl)pyrrolidin-1-yl]carbonyl}-1H-pyrrol-2-yl)methylene]-2-oxo-N-[(1R)-1-phenylethyl]indoline-5-carboxamide], the IC50 in assay [1] was under 5 µM.

Turning to `CCC(NC(=O)c1ccc2c(c1)/C(=C/c1[nH]c(C)c(C(=O)NCCN3CCCC3)c1C)C(=O)N2)c1cccc(Cl)c1` (stereo not drawn) [Compound 11, (3Z)-N-[1-(3-chlorophenyl)propyl]-3-({3,5-dimethyl-4-[(2-pyrrolidin-1-ylethyl)carbamoyl]-1H-pyrrol-2-yl}methylene)-2-oxoindoline-5-carboxamide], the IC50 in assay [2] (setting [3]) was under 5 µM.

The record behind these values is EP2837626A1, “Indolinone derivatives as GRK5 modulators” (Max-Planck-Gesellschaft zur Förderung der Wissenschaften …, priority 2013, dated 2015).
